Experimental data taken from patent US6630466B2, “Medicament compositions containing anticholinergically-effective compounds and salmeterol” (priority 1999, dated 2003).
Where “and” joins values, the source holds several entries; their conditions need not be identical. Equal entries are not always repeated. Structures can show the parent of a compound that is named as a salt.

How the values were obtained:
[1] = system: Heart Frequency of Narcotized Dogs; assay: Heart frequency of narcotized dogs after inhalative application via RESPIMAT (ECG, cardiotachometer)
Protocol: (§1) 18 mongrel dogs with a body weight of 27 to 32 kg. Kept in individual or communal cages, pelleted standard food, last fed approximately 15 hours before the start of the tests, drinking water freely available.
(§2) After pre-medication with 2 mg/kg morphine hydrochloride i.m., 30 mg/kg pentobarbital-sodium (NEMBUTAL®) is slowly injected intravenously. The animals are relaxed with 1.0 mg/kg i.v. suxamethonium.
Registration of heart frequency is via ECG (extremity derivative II) and cardiotachometer.
After an equilibration period of 30 minutes, short-term bronchospasms are generated by i.v. injection of 10 μg/kg acetylcholine chloride—this is repeated 2-3× within a 10-minute period. […] Application of the combinations takes place with the individual combinations with an interval of approximately 1 minute. With the BINEB system, the triggering mechanism takes place at the end of the expiration phase and the atomized solution is pressed into the tracheo-bronchial tree in the following inspiration phase of the breath pump.

[2] = system: bronchial resistance of narcotized dogs; assay: Bronchospasmolytic effect: inhibition of ACh-induced increase of pulmonary resistance in narcotized dogs after inhalative application via […]; type: in vivo, dog; settings: single substances 3 and 10 μg, combination 3 μg + 3 μg
Protocol: as §1, §2
After intubation via a servo ventilator 900C (Siemens), the animals are ventilated with ambient air and oxygen (4:1), frequency 15/min., breath volume 6 to 8 L/min. For registration of the breathing mechanics, breath flow is determined by means of a pressurizing pipe (flesh no. 1), installed directly before the orotracheal tube, of a differential pressure recorder and amplifier DCB-4C. A catheter is placed in the trachea and a second (balloon) catheter is placed in the lung section of the esophagus. Both are connected with a differential pressure recorder and amplifier for determination of the transpulmonary pressure. A breath mechanics computer (IFD-Mühlheim) determines the pulmonary resistance (R) from the registered pressure values. From this, a computer program VAS-1 LA (IFD-Mühlheim) calculates: [formula] […]

[3] = 3 μg inhalative, 1 min after application, individual dog
[4] = 3 μg inhalative, 5 min after application, individual dog
[5] = 3 μg inhalative, 5 min after application, mean value, n = 6
[6] = 3 μg inhalative, 10 min after application, individual dog
[7] = 3 μg inhalative, 20 min after application, individual dog
[8] = 3 μg inhalative, 30 min after application, individual dog
[9] = 3 μg inhalative, 60 min after application, individual dog
[10] = 3 μg inhalative, 120 min after application, individual dog
[11] = 3 μg inhalative, 180 min after application, individual dog
[12] = 3 μg inhalative, 180 min after application, mean value, n = 6
[13] = 10 μg inhalative, 1 min after application, individual dog
[14] = 10 μg inhalative, 5 min after application, individual dog
[15] = 10 μg inhalative, 5 min after application, mean value, n = 6
[16] = 10 μg inhalative, 10 min after application, individual dog
[17] = 10 μg inhalative, 10 min after application, mean value, n = 6
[18] = 10 μg inhalative, 20 min after application, individual dog
[19] = 10 μg inhalative, 20 min after application, mean value, n = 6
[20] = 10 μg inhalative, 30 min after application, individual dog
[21] = 10 μg inhalative, 30 min after application, mean value, n = 6
[22] = 10 μg inhalative, 60 min after application, individual dog
[23] = 10 μg inhalative, 60 min after application, mean value, n = 6
[24] = 10 μg inhalative, 120 min after application, individual dog
[25] = 10 μg inhalative, 180 min after application, individual dog
[26] = 10 μg inhalative, 180 min after application, mean value, n = 6

## COc1ccc(CC(C)NCC(O)c2ccc(O)c(NC=O)c2)cc1 (centres unmarked) [formoterol fumarate, formoterol]
[1]; [3]
  Heart frequency (beats/min.): 67.00 beats/min. and 91.00 beats/min. and 102.00 beats/min.
  Heart frequency, % alteration: 7.94% and −7.52% and 11.67% and 13.04% and 21.13% and 15.68%
[1]; 3 μg inhalative, 1 min after application, mean value, n = 6
  Heart frequency (beats/min.): 103.17 beats/min.
[1]; [4]
  Heart frequency (beats/min.): 140.00 beats/min. and 64.00 beats/min. and 95.00 beats/min.
  Heart frequency, % alteration: 11.11% and 5.26% and 6.67% and 18.01% and 28.64% and 25.41%
[1]; [5]
  Heart frequency (beats/min.): 109.50 beats/min.
  Heart frequency, % alteration: 15.85%
[1]; [6]
  Heart frequency (beats/min.): 100.00 beats/min. and 110.00 beats/min.
  Heart frequency, % alteration: 36.51% and 21.80% and 66.67% and 36.65% and 29.58%
[1]; 3 μg inhalative, 10 min after application, mean value, n = 6
  Heart frequency, % alteration: 37.72%
[1]; [7]
  Heart frequency (beats/min.): 165.00 beats/min. and 95.00 beats/min. and 100.00 beats/min. and 141.00 beats/min.
  Heart frequency, % alteration: 41.80% and 24.06% and 54.33% and 24.44% and 32.39% and 36.22%
[1]; 3 μg inhalative, 20 min after application, mean value, n = 6
  Heart frequency, % alteration: 36.17%
[1]; [8]
  Heart frequency (beats/min.): 159.00 beats/min. and 89.00 beats/min. and 95.00 beats/min.
  Heart frequency, % alteration: 46.03% and 48.33% and 18.01% and 38.38%
[1]; 3 μg inhalative, 30 min after application, mean value, n = 6
  Heart frequency, % alteration: 34.41%
[1]; [9]
  Heart frequency (beats/min.): 86.00 beats/min. and 94.00 beats/min. and 140.00 beats/min.
  Heart frequency, % alteration: 41.80% and 15.04% and 43.33% and 31.46% and 38.38%
[1]; 3 μg inhalative, 60 min after application, mean value, n = 6
  Heart frequency, % alteration: 31.13%
[1]; [10]
  Heart frequency (beats/min.): 88.00 beats/min. and 94.00 beats/min. and 130.00 beats/min. and 120.00 beats/min.
  Heart frequency, % alteration: 21.69% and 46.67% and 29.73%
[1]; [11]
  Heart frequency (beats/min.): 140.00 beats/min. and 86.00 beats/min. and 96.00 beats/min. and 130.00 beats/min. and 120.00 beats/min.
  Heart frequency, % alteration: 14.29% and 5.26% and 43.33% and 19.25% and 29.73%
[1]; [12]
  Heart frequency (beats/min.): 113.33 beats/min.
  Heart frequency, % alteration: 22.32%
[1]; [13]
  Heart frequency (beats/min.): 96.00 beats/min.
  Heart frequency, % alteration: 22.75% and 9.02% and 81.67% and 19.25% and −1.41% and 31.89%
[1]; 10 μg inhalative, 1 min after application, mean value, n = 6
  Heart frequency, % alteration: 27.20%
[1]; [14]
  Heart frequency (beats/min.): 136.00 beats/min. and 120.00 beats/min. (2×)
  Heart frequency, % alteration: 61.90% and 2.26% and 143.33% and 49.07% and 12.68% and 31.89%
[1]; [15]
  Heart frequency (beats/min.): 132.83 beats/min.
  Heart frequency, % alteration: 50.19%
[1]; [16]
  Heart frequency (beats/min.): 191.00 beats/min. and 152.00 beats/min. and 144.00 beats/min. and 160.00 beats/min. and 130.00 beats/min. and 155.00 beats/min.
  Heart frequency, % alteration: 64.02% and 43.61% and 153.33% and 78.88% and 50.23% and 40.54%
[1]; [17]
  Heart frequency (beats/min.): 155.33 beats/min.
  Heart frequency, % alteration: 71.77%
[1]; [18]
  Heart frequency (beats/min.): 204.00 beats/min. and 156.00 beats/min. and 135.00 beats/min. and 157.00 beats/min.
  Heart frequency, % alteration: 66.14% and 53.38% and 155.00% and 93.79% and 48.36% and 45.95%
[1]; [19]
  Heart frequency (beats/min.): 160.50 beats/min.
  Heart frequency, % alteration: 77.10%
[1]; [20]
  Heart frequency (beats/min.): 207.00 beats/min. and 150.00 beats/min. (2×) and 156.00 beats/min. and 140.00 beats/min. and 159.00 beats/min.
  Heart frequency, % alteration: 68.25% and 55.64% and 150.00% and 93.79% and 40.85% and 51.35%
[1]; [21]
  Heart frequency (beats/min.): 160.33 beats/min.
  Heart frequency, % alteration: 76.65%
[1]; [22]
  Heart frequency (beats/min.): 210.00 beats/min. and 149.00 beats/min. and 140.00 beats/min. (2×) and 150.00 beats/min. and 163.00 beats/min.
  Heart frequency, % alteration: 72.49% and 57.89% and 148.33% and 73.91% and 40.85% and 51.35%
[1]; [23]
  Heart frequency (beats/min.): 158.67 beats/min.
  Heart frequency, % alteration: 74.14%
[1]; [24]
  Heart frequency (beats/min.): 209.00 beats/min. and 140.00 beats/min. and 135.00 beats/min. and 176.00 beats/min.
  Heart frequency, % alteration: 86.24% and 57.14% and 143.33% and 73.91% and 45.95%
[1]; 10 μg inhalative, 120 min after application, mean value, n = 6
  Heart frequency, % alteration: 73.79%
[1]; [25]
  Heart frequency (beats/min.): 205.00 beats/min. and 141.00 beats/min. and 130.00 beats/min. and 135.00 beats/min. and 152.00 beats/min.
  Heart frequency, % alteration: 60.85% and 54.14% and 135.00% and 61.49% and 45.95%
[1]; [26]
  Heart frequency (beats/min.): 151.33 beats/min.
  Heart frequency, % alteration: 65.59%
[1]; high dosage (10 μg)
  maximum increase of heart frequency: over 90%
[1]; high dosage (10 μg), end of test (180 minutes)
  increase of heart frequency after the end of the test: over 80%
[2]
  onset of maximum bronchospasmolytic effect: rapidly occurs
[2]; test duration 180 minutes
  effective duration of bronchospasmolytic effect: comparatively short
